# Reference: patent US20250115583A1, “BICYCLIC INDAZOLE GLUCOCORTICOID RECEPTOR ANTAGONISTS” (Corcept Therapeutics Incorporated, priority 2021, published 2025)
# pKi: −log10 of the molar value.
# Biological target: glucocorticoid receptor (Homo sapiens (Human), UniProt P04150)
# Assay: HepG2 TAT assay: inhibition of dexamethasone-induced tyrosine aminotransferase (TAT) activity
# Assay type: cell-based
# Conditions: HepG2 cells, challenge of 100 nM dexamethasone, 18-24 hr; IC50 converted to Ki by Cheng and Prusoff equation
# Protocol: Glucocorticoid mediated activation of TAT occurs by transactivation of glucocorticoid response elements in the TAT promoter by glucocorticoid receptor-agonist complex.
# HepG2 cells were cultured using MEME media supplemented with 10% (v/v) foetal bovine serum; 2 mM L-glutamine and 1% (v/v) NEAA at 37° C., 5%/95% (v/v) CO2/air.
# Compounds were serially half log diluted in 100% (v/v) dimethylsulphoxide from a 10 mM stock.
# HepG2 cells were then lysed with 30 μl of cell lysis buffer containing a protease inhibitor cocktail for 15 minutes at 4° C. […] After 2 hours incubation at 37° C. the reaction was terminated by the addition of 15 μl of 10M aqueous potassium hydroxide solution, and the plates incubated for a further 30 minutes at 37° C.
# [compound] and fitting the data to a 4 parameter logistic equation.
# Sequence of glucocorticoid receptor (P04150 whole entry): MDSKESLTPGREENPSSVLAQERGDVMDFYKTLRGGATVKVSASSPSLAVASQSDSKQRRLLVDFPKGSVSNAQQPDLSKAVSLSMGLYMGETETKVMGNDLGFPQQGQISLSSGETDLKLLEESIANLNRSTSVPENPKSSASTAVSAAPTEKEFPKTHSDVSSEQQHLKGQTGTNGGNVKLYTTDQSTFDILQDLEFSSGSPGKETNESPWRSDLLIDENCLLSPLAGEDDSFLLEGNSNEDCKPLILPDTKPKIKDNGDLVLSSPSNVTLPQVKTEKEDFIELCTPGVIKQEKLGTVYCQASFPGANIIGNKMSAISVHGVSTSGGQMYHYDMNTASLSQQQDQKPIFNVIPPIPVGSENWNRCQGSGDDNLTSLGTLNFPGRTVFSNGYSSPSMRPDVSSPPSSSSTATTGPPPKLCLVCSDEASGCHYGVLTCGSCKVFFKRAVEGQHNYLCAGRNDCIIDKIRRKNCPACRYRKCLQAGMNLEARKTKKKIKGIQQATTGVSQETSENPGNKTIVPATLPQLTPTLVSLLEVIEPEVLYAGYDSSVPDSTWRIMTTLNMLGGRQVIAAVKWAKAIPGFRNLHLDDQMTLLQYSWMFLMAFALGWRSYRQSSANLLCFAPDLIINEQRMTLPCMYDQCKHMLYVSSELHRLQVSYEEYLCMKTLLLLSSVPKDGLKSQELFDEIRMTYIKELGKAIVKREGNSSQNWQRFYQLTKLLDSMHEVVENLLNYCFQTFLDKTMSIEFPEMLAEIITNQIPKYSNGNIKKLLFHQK
row,Compound,pKi
1,"Cc1cc2c(cnn2-c2ccc(F)cc2)cc1[C@@]12CN(S(=O)(=O)C3COC3)C[C@@H]1[C@H]2c1ccccc1 (single isomer, unassigned) [Example 140, 5-(3-(oxetan-3-ylsulfonyl)-6-phenyl-3-azabicyclo[3.1.0]hexan-1-yl)-1-(4-fluorophenyl)-6-methyl-1H-indazole]",7.19
2,"Cc1cc2c(cnn2-c2ccc(F)cc2)cc1[C@@]12CN(C(=O)c3ncccc3C(F)(F)F)C[C@@H]1[C@H]2c1ccccc1 (single isomer, unassigned) [Example 148, (1-(1-(4-fluorophenyl)-6-methyl-1H-indazol-5-yl)-6-phenyl-3-azabicyclo[3.1.0]hexan-3-yl)(3-(trifluoromethyl)pyridin-2-yl)methanone]",8.04
3,"Cc1cc2c(cnn2-c2ccc(F)cc2)cc1[C@@]12CN(C(=O)c3cc(C(F)(F)F)ccn3)C[C@@H]1[C@H]2c1ccccc1 (single isomer, unassigned) [Example 150, (1-(1-(4-fluorophenyl)-6-methyl-1H-indazol-5-yl)-6-phenyl-3-azabicyclo[3.1.0]hexan-3-yl)(4-(trifluoromethyl)pyridin-2-yl)methanone]",7.74
4,"Cc1cc2c(cnn2-c2ccc(F)cc2)cc1[C@@]12CN(C(=O)c3ncnn3C)C[C@@H]1[C@H]2c1ccccc1 (single isomer, unassigned) [Example 170, (1-(1-(4-fluorophenyl)-6-methyl-1H-indazol-5-yl)-6-phenyl-3-azabicyclo[3.1.0]hexan-3-yl)(1-methyl-1H-1,2,4-triazol-5-yl)methanone]",7.39
5,"CO[C@@]1(c2ccccc2)C[C@H]2CN(S(=O)(=O)c3cnn(C)n3)C[C@@]2(c2cc3cnn(-c4ccc(F)cc4)c3cc2C)C1 (stereo in doubt) [Example 19, 1-(4-fluorophenyl)-5-(5-methoxy-2-((2-methyl-2H-1,2,3-triazol-4-yl)sulfonyl)-5-phenylhexahydrocyclopenta[c]pyrrol-3a(1H)-yl)-6-methyl-1H-indazole]",7.33
6,"Cc1cc2c(cnn2-c2ccc(F)cc2)cc1[C@@]12CN(S(=O)(=O)c3cnn(C)n3)C[C@@H]1[C@@H]2CO (stereo in doubt) [Example 48, (1-(1-(4-fluorophenyl)-6-methyl-1H-indazol-5-yl)-3-((2-methyl-2H-1,2,3-triazol-4-yl)sulfonyl)-3-azabicyclo[3.1.0]hexan-6-yl) methanol]",6.24
7,"Cc1cc2c(cnn2-c2ccc(F)cc2)cc1[C@@]12CN(S(=O)(=O)c3cnn(C)n3)C[C@@H]1[C@H]2COc1ccccc1 (stereo in doubt) [Example 49, 1-(4-fluorophenyl)-6-methyl-5-(3-((2-methyl-2H-1,2,3-triazol-4-yl)sulfonyl)-6-(phenoxymethyl)-3-azabicyclo[3.1.0]hexan-1-yl)-1H-indazole]",6.92
8,"Cc1cc2c(cnn2-c2ccc(F)cc2)cc1[C@@]12CN(S(=O)(=O)c3cnn(C)n3)C[C@@H]1[C@H]2COC(C)C (stereo in doubt) [Example 51, 1-(4-fluorophenyl)-5-(6-(isopropoxymethyl)-3-((2-methyl-2H-1,2,3-triazol-4-yl)sulfonyl)-3-azabicyclo[3.1.0]hexan-1-yl)-6-methyl-1H-indazole]",6.54
9,"Cc1cc2c(cnn2-c2ccc(F)cc2)cc1[C@]12CN(S(=O)(=O)c3cnn(C)n3)C[C@H]1[C@@H]2C(=O)Nc1ccc(F)cn1 (stereo in doubt) [Example 54, 1-(1-(4-fluorophenyl)-6-methyl-1H-indazol-5-yl)-N-(5-fluoropyridin-2-yl)-3-((2-methyl-2H-1,2,3-triazol-4-yl)sulfonyl)-3-azabicyclo[3.1.0]hexane-6-carboxamide]",7.48
10,"Cc1cc2c(cnn2-c2ccc(F)cc2)cc1[C@@]12CN(S(=O)(=O)c3cnn(C)n3)C[C@@H]1[C@H]2C(=O)N1CCCC1 (stereo in doubt) [Example 55, (1-(1-(4-fluorophenyl)-6-methyl-1H-indazol-5-yl)-3-((2-methyl-2H-1,2,3-triazol-4-yl)sulfonyl)-3-azabicyclo[3.1.0]hexan-6-yl)(pyrrolidin-1-yl)methanone]",6.52
11,"Cc1cc2c(cnn2-c2ccc(F)cc2)cc1[C@@]12CN(S(=O)(=O)c3cnn(C)n3)C[C@@H]1[C@H]2C(=O)Nc1ccc(F)cn1 (stereo in doubt) [Example 56, 1-(1-(4-fluorophenyl)-6-methyl-1H-indazol-5-yl)-N-(5-fluoropyridin-2-yl)-3-((2-methyl-2H-1,2,3-triazol-4-yl)sulfonyl)-3-azabicyclo[3.1.0]hexane-6-carboxamide]",7.42

# Now from value to compound:
row,pKi,Compound
1,7.43,"Cc1cc2c(cnn2-c2ccc(F)cc2)cc1[C@@]12CN(C(=O)c3cnn(C)c3)C[C@@H]1[C@H]2c1ccccc1 (single isomer, unassigned) [Example 129, (1-(1-(4-fluorophenyl)-6-methyl-1H-indazol-5-yl)-6-phenyl-3-azabicyclo[3.1.0]hexan-3-yl)(1-methyl-1H-pyrazol-4-yl)methanone]"
2,8.24,"Cc1cc2c(cnn2-c2ccc(F)cc2)cc1[C@@]12CN(C(=O)c3ccccc3C#N)C[C@@H]1[C@H]2c1ccccc1 (single isomer, unassigned) [Example 130, 2-(1-(1-(4-fluorophenyl)-6-methyl-1H-indazol-5-yl)-6-phenyl-3-azabicyclo[3.1.0]hexane-3-carbonyl)benzonitrile]"
3,7.72,"COc1cccc(C(=O)N2C[C@@H]3[C@@H](c4ccccc4)[C@]3(c3cc4cnn(-c5ccc(F)cc5)c4cc3C)C2)c1 (single isomer, unassigned) [Example 141, (1-(1-(4-fluorophenyl)-6-methyl-1H-indazol-5-yl)-6-phenyl-3-azabicyclo[3.1.0]hexan-3-yl)(3-methoxyphenyl)methanone]"
4,7.85,"Cc1ccnc(C(=O)N2C[C@@H]3[C@@H](c4ccccc4)[C@]3(c3cc4cnn(-c5ccc(F)cc5)c4cc3C)C2)c1 (single isomer, unassigned) [Example 146, (1-(1-(4-fluorophenyl)-6-methyl-1H-indazol-5-yl)-6-phenyl-3-azabicyclo[3.1.0]hexan-3-yl)(4-methylpyridin-2-yl)methanone]"
5,7.89,"Cc1cc2c(cnn2-c2ccc(F)cc2)cc1[C@@]12CN(C(=O)c3cc(C#N)ccn3)C[C@@H]1[C@H]2c1ccccc1 (single isomer, unassigned) [Example 149, 2-(1-(1-(4-fluorophenyl)-6-methyl-1H-indazol-5-yl)-6-phenyl-3-azabicyclo[3.1.0]hexane-3-carbonyl)isonicotinonitrile]"
6,7.55,"Cc1ccc(C(=O)N2C[C@@H]3[C@@H](c4ccccc4)[C@]3(c3cc4cnn(-c5ccc(F)cc5)c4cc3C)C2)nc1 (single isomer, unassigned) [Example 151, (1-(1-(4-fluorophenyl)-6-methyl-1H-indazol-5-yl)-6-phenyl-3-azabicyclo[3.1.0]hexan-3-yl)(5-methylpyridin-2-yl)methanone]"
7,7.70,"Cc1cc2c(cnn2-c2ccc(F)cc2)cc1[C@@]12CN(C(=O)c3ccc(F)cn3)C[C@@H]1[C@H]2c1ccccc1 (single isomer, unassigned) [Example 152, (1-(1-(4-fluorophenyl)-6-methyl-1H-indazol-5-yl)-6-phenyl-3-azabicyclo[3.1.0]hexan-3-yl)(5-fluoropyridin-2-yl)methanone]"
8,7.42,"Cc1nc(C(=O)N2C[C@@H]3[C@@H](c4ccccc4)[C@]3(c3cc4cnn(-c5ccc(F)cc5)c4cc3C)C2)cs1 (single isomer, unassigned) [Example 153, (1-(1-(4-fluorophenyl)-6-methyl-1H-indazol-5-yl)-6-phenyl-3-azabicyclo[3.1.0]hexan-3-yl)(2-methylthiazol-4-yl)methanone]"
9,7.72,"Cc1cc2c(cnn2-c2ccc(F)cc2)cc1[C@@]12CN(C(=O)c3ncccc3C#N)C[C@@H]1[C@H]2c1ccccc1 (single isomer, unassigned) [Example 155, 2-(1-(1-(4-fluorophenyl)-6-methyl-1H-indazol-5-yl)-6-phenyl-3-azabicyclo[3.1.0]hexane-3-carbonyl)nicotinonitrile]"
10,7.72,"Cc1cc2c(cnn2-c2ccc(F)cc2)cc1[C@@]12CN(C(=O)c3ccc(C#N)cn3)C[C@@H]1[C@H]2c1ccccc1 (single isomer, unassigned) [Example 163, 6-(1-(1-(4-fluorophenyl)-6-methyl-1H-indazol-5-yl)-6-phenyl-3-azabicyclo[3.1.0]hexane-3-carbonyl)nicotinonitrile]"
11,7.08,"Cc1cc2c(cnn2-c2ccc(F)cc2)cc1[C@@]12CN(C(=O)c3ccncc3)C[C@@H]1[C@H]2c1ccccc1 (single isomer, unassigned) [Example 165, (1-(1-(4-fluorophenyl)-6-methyl-1H-indazol-5-yl)-6-phenyl-3-azabicyclo[3.1.0]hexan-3-yl)(pyridin-4-yl)methanone]"
12,7.68,"Cc1cc2c(cnn2-c2ccc(F)cc2)cc1[C@@]12CN(C(=O)c3ccc(C4CC4)cn3)C[C@@H]1[C@H]2c1ccccc1 (single isomer, unassigned) [Example 167, (5-cyclopropylpyridin-2-yl)(1-(1-(4-fluorophenyl)-6-methyl-1H-indazol-5-yl)-6-phenyl-3-azabicyclo[3.1.0]hexan-3-yl)methanone]"
13,7.59,"Cc1cc2c(cnn2-c2ccc(F)cc2)cc1[C@@]12CN(C(=O)c3ncn(C)n3)C[C@@H]1[C@H]2c1ccccc1 (single isomer, unassigned) [Example 172, (1-(1-(4-fluorophenyl)-6-methyl-1H-indazol-5-yl)-6-phenyl-3-azabicyclo[3.1.0]hexan-3-yl)(1-methyl-1H-1,2,4-triazol-3-yl)methanone]"
